Laboratory results reported in article PMC13534789, “Molecular Glue Degraders Enhance CAPRIN1‐Dependent Lysosomal Degradation of APP and Reduce Amyloid β in Alzheimer's Disease” (Advanced Science, 2026).
Read-outs that look alike come from different tables or passages of the source.

Key:
[1] = tested on: Aβ42; assay: Aβ42 ELISA of conditioned media, iPSC-derived neurons; type: cell-based, human; details: for IC50: Homo sapiens, Neuron
Excerpt: The human iPSC SAD2.3 (UCSD234i‐SAD2‐3) and HVRDi002A were purchased from Wicell, UKBi011A from the European Bank for induced pluripotent stem cells, Sigma, AG25367, AG25370, AG27606, AG27608, AG27609, AG28049, AG28262, and AG27602 from Coriell. All iPSCs were maintained and expanded on Matrigel (Growth factor reduced Matrigel matrix, Corning) in mTeSR1 complete medium (mTeSR1 medium + 5X supplement, Stem Cell Technologies). For iPSC‐Ns transgene delivery, each iPSC line was transduced with lentiviral particles for pLVX‐UbC‐rtTA‐Ngn2:2A:Ascl1 […]), followed by selection in the presence of puromycin ([…], Gibco). To initiate conversion, iPSCs were differentiated into neurons using the established Ascl1/Mash1 (33) and Neurogenin 2 (Ngn2) (34) protocols.
iPSC‐Ns or HEK‐APP695WT were treated with drugs, and secreted Aβ42 peptides inculture soup were quantified using the Human Amyloid β1‐42 human ELISA kit (Thermo Fisher) according to the manufacturer's protocol. Mouse brain extraction was performed as previously described, with minor modifications. Mouse brain tissues were homogenized at a 1:10 weight‐to‐volume ratio in Tris‐buffered saline (TBS; 50 mM Tris, pH 7.4, 150 mM NaCl) supplemented with 2 mM EDTA and protease inhibitors. TBS‐homogenized brains were centrifuged for 1 h at 16 000 g. To extract total Aβ, including insoluble fractions, formic acid was added to a final concentration of 70%, and the samples were thoroughly mixed by pipetting. Homogenates were centrifuged at 100 000 g for 1 h at 4°C, and the resulting supernatants were collected. Prior to quantification, formic acid‐containing samples were neutralized with 1 M Tris base (pH 11). Aβ40 and Aβ42 levels were measured using human‐specific ELISA kits (Invitrogen) and normalized to total protein concentrations determined by the BCA assay (Thermo Scientific). For Aβ quantification in 3D organoids, 3D organoids’ processing and ELISA analysis were performed with minor modifications from previously described protocols. Briefly, cerebral organoids were lysed in RIPA buffer supplemented with protease and phosphatase inhibitor cocktails (Sigma), followed by sonication and incubation on ice for 60 min. Lysates were centrifuged at 13 000 rpm for 1 h at 4°C, and the supernatants were collected as the RIPA‐soluble fraction. The remaining pellets were resuspended in 70% formic acid, sonicated, and subsequently neutralized with Tris buffer to obtain the formic acid‐solubilized fraction. Aβ42 levels in both fractions were measured using human‐specific ELISA kits (Thermo Fisher) according to the manufacturer's instructions. Formic acid extracts were appropriately neutralized prior to ELISA. Aβ levels were normalized to total protein concentration determined by BCA assay.

[2] = target: CAPRIN1–APP interaction (Homo sapiens, UniProt P05067+Q14444); assay: CAPRIN1–APP interaction in cells (co-IP, confocal colocalization); type: cell-based; parameters: endogenous in cells; host or cells: AG27606-Ns, sAD2.3-Ns (iPSC-derived neurons) and their lysates; details: 10 µM, 24 h; for APP–CAPRIN1 colocalization (confocal, Pearson's coefficient): AG27606-Ns and sAD2.3-Ns
CAPRIN1–APP interaction, sequence (Q14444 2-709 limits assumed): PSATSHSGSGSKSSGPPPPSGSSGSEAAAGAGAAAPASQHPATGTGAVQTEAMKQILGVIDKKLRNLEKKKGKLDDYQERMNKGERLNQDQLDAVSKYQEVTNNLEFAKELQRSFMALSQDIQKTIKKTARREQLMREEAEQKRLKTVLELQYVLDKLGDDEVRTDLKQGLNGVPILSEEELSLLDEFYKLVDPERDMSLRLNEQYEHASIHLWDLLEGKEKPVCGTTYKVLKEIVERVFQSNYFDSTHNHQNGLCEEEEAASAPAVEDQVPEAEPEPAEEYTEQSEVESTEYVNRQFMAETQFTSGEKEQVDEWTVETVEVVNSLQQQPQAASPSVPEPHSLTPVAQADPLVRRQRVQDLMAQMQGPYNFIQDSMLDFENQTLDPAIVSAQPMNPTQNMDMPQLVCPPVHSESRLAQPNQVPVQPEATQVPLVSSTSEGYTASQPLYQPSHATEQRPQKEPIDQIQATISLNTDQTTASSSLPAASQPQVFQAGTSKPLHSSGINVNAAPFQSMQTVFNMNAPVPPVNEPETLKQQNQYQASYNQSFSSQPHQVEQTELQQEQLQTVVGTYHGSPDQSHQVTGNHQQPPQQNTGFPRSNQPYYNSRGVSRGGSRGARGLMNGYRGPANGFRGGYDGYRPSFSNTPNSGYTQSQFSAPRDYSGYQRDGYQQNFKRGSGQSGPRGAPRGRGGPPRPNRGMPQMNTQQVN
CAPRIN1–APP interaction, sequence (P05067 18-695 isoform P05067-4 limits assumed): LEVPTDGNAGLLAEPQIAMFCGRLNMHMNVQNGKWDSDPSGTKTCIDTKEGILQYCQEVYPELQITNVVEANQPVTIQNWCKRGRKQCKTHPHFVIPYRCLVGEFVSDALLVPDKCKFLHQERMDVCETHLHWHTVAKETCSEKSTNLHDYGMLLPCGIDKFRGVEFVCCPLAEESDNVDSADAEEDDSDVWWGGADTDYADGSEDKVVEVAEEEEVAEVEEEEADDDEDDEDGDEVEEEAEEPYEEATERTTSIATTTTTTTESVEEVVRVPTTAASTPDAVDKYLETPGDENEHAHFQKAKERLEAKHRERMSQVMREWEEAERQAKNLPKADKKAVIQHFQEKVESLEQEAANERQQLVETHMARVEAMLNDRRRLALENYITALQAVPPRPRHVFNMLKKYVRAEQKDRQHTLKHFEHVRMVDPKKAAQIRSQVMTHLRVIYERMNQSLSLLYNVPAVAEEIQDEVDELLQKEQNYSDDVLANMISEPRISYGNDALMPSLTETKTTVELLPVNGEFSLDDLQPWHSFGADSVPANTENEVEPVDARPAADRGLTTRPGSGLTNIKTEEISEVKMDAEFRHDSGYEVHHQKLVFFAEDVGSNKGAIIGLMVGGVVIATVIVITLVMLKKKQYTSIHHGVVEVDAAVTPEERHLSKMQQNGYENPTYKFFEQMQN
Description: Cells were lysed in 1% Triton X‐100 buffer (50 mM Tris (pH 7.4), 150 mM NaCl, 10% glycerol, 1% Triton X‐100, 1 mM EDTA) or RIPA buffer (50 mM Tris (pH7.5), 150 mM NaCl, 0.5% NP40, 0.5% deoxycholate, 0.1% SDS) supplemented with 1 mM PMSF, protease and phosphatase inhibitors. For immunoprecipitation, cell lysates (0.5–1 mg) were incubated with the primary antibodies (1–2 µg) overnight at 4°C and mixed with protein G beads for 4 h. The immunoprecipitants were washed with 1% Triton X‐100 buffer 3 times and eluted with Laemmli buffer, followed by western blot. Immunoprecipitations were performed using the following approaches: (i) Tagged CAPRIN1 immunoprecipitation (HEK293 overexpression assays): HEK293 cells were co‐transfected with APP constructs (including APP695‐HiBiT) and Flag‐ or Myc‐tagged CAPRIN1. CAPRIN1 was immunoprecipitated using anti‐Flag or anti‐Myc antibodies, and co‐precipitated APP was detected by immunoblot; (ii) Endogenous APP immunoprecipitation: APP was immunoprecipitated using anti‐APP antibody (Sigma, A8717), followed by immunoblotting for CAPRIN1. Where indicated, reciprocal immunoprecipitation using anti‐CAPRIN1 antibody was performed, followed by APP detection; (iii) CAPRIN1 immunoprecipitation: In selected experiments, CAPRIN1 was immunoprecipitated using anti‐CAPRIN1 antibody (Proteintech, 15112‐1‐AP), and co‐precipitated proteins including APP and LAMP1 were analyzed by immunoblot; (iv) HiBiT‐based pull‐down assays: In HEK293 cells expressing APP695‐HiBiT, APP constructs were immunoprecipitated using anti‐HiBiT antibody (Promega, N7200), followed by detection of CAPRIN1. Western blot bands were quantified using Fiji (ImageJ) with background subtraction and normalized to loading controls.
Cells were grown on glass cover slips coated with 1% Matrigel and treated with drugs. Cells were washed, fixed, permeabilized, blocked, and incubated in primary antibodies diluted in blocking solution (1% v/v BSA solution/5% Goat serum in PBS containing 0.1% Triton X‐100) overnight at 4°C. The cells were washed three times with PBS and incubated in secondary antibodies in a blocking solution for 1 h at room temperature, then washed with PBS, followed by HOECHST staining (Invitrogen) for 5 min, and washed with PBS. The glass coverslips were put on a slide‐in mounting medium ([…]), and the edges were sealed with coverslip sealant (BIOTIUM). […]
ImageJ (Fiji) program (NIH, Bethesda, MD, USA) was used o analyze images. Pearson's correlation coefficients were calculated with the JACoP plugin from two channels (BIOP). […] Colocalized areas were calculated in the image calculator tool ([…] function) to get an overlayed area for the segmented signals, followed by using the analyze particle tool in Fiji to determine by > 1‐pixel overlapping of the segmented signal. […]

[3] = 120 h, AG27606 neurons, 5-day treatment, ELISA, normalized to DMSO, read-out: IC50, Aβ42 dose–response

Compound	Aβ42 secretion across iPSC-Ns from sAD, fAD and non-AD donors ([1]; 10 µM, 72 h)	IC50 [1, 3] [µM]	IC50 ([1]; 120 h, sAD2.3 neurons, 5 days treatment, ELISA, read-out: IC50, relative Aβ42 levels in conditioned media) [µM]	IC50 ([1]; SAD2.3-Ns and AG27606-Ns, read-out: IC50 values, Aβ42 secretion) [µM]	Aβ42 levels in culture media ([1]; sAD2.3 neurons, 10 µM, 72 h)	APP–CAPRIN1 colocalization (confocal, Pearson's coefficient) [2]	CAPRIN1–APP interaction (APP IP, CAPRIN1 immunoblot) ([2]; AG27606-Ns)	CAPRIN1–APP interaction (co-IP) ([2]; HEK-APP695 cells)
N#Cc1cccc(NC(=O)Nc2nc3ccc(C(=O)N4CCOCC4)cc3s2)c1 [compound 0043]	effectively lowered Aβ42 secretion	2.1	1.8	1.8 to 2.1	reduced Aβ42 levels	increased co‐localization of APP and CAPRIN1	enhances CAPRIN1‐APP interaction	enhanced the interaction between CAPRIN1 and APP
COc1cccc(NC(=O)Nc2nc3ccc(C(=O)N4CCOCC4)cc3s2)c1 [compound 0152]	consistently reduced both APP and Aβ42 levels	0.9	–	–	–	increased colocalization of APP and CAPRIN1	–	–
